Literature values, collected in US10314914B2, “Iodophor composition and methods of use” (Veloce BioPharma, LLC, priority 2015, dated 2019).

Conditions: 50% solution of DMSO in water

## C[C@]12CCC(=O)C=C1CC[C@@H]1[C@@H]2[C@@H](O)C[C@@]2(C)[C@H]1CC[C@]2(O)C(=O)CO [hydrocortisone]
  rate of penetration: markedly enhanced
